Assay results taken from patent US20120115896A1, “ISOGENIC HUMAN CELL LINES COMPRISING MUTATED CANCER ALLELES AND PROCESS USING THE CELL LINES” (priority 2008, published 2012).
Read-outs that look alike come from different tables or passages of the source.

What was measured:
[1] = test system: panel of cell lines derived from glioblastoma, breast, ovarian, prostate, endometrial and colorectal carcinomas carrying genetic alterations in PIK3CA or PTEN; experiment: Antiproliferative effects of everolimus on a panel of cancer cell lines; type: cell-based, human; details: FIG. 7A
Excerpt: The present pharmacogenomic analysis of non-transformed cells carrying cancer alleles point to a relationship between the occurrence of PIK3CA mutations and sensitivity to everolimus. The present inventors next assessed whether and to what extent these findings might be applicable to human cancer cells in which mutations in the PIK3CA pathway naturally occur alongside with additional genetic alterations. To this end a panel of cell lines derived from glioblastoma, breast, ovarian, prostate, endometrial and colorectal carcinomas which are known to carry genetic alterations in PIK3CA or PTEN (FIG. 7) were treated with everolimus. […] Everolimus-resistant cells (such as HT-29, HCT 116 and DLD-1) carried mutations in both PIK3CA and KRAS/BRAF.

ME-180 cells = experiment: Proliferation under everolimus (72 hours) of cells infected with control or KRASG13D lentivirus; type: cell-based, human; details: KRAS G13D lentivirus, FIG. 17B
Method: (§1) Effect of everolimus (72 hours) on proliferation of HKe-3 (HCT116-derivative KRAS WT clone) (A) and ME-180 (B) cells infected with control or KRASG13D lentivirus.
(§2) The present inventors transduced HCT116-derivative clones that had only the KRAS WT allele (HKe-3), and the […] cancer cell line ME-180 (carrying PIK3CA E545K mutant and KRAS WT) with a lentiviral vector encoding for KRAS G13D cDNA.

[2] = test system: HKe-3 (HCT116-derivative KRAS WT clone) cells; experiment: as above; type: cell-based, human; details: KRAS G13D lentivirus, FIG. 17A
Method: as §1, §2

[3] = test system: DLD-1 colorectal cancer cells and derivative clones (DKO-1, DKO-3, DKO-4, PIK3CA WT/mutant); experiment: Viability (ATP assay) of DLD-1 cells and isogenic KRAS / PIK3CA derivative clones
Method: (§3) Results are expressed as percent of viability compared to cells treated with DMSO only ('control') and represent mean±SD of at least three independent observations.
(§4) After serial dilutions, 100 μl of drugs in serum free medium were added to cells with a multichannel pipette. Vehicle and medium-only containing wells were added as controls. Plates were incubated at 37° C. in 5% CO2 for 96 h, after which cell viability was assessed by ATP content using the CellTiter-Glo® Luminescent Assay (Promega Madison, Wis.).

[4] = test system: hTERT-HME1 cells of the indicated genotype (WT, PIK3CA KI, KRAS G13D, DKI KRAS G13D + PIK3CA H1047R); experiment: Cell cycle analysis by flow cytometry (propidium iodide) after everolimus 500 nM for 48 h; type: cell-based, human; details: for cells in G1 phase, Mean / cells in G2/M phase, Mean / cells in S phase, Mean / cells in G2 + S, Mean / cells in Sub-G1, Mean: FACS
Method: (A) CFSE-labelled cells were analyzed by flow cytometry at the indicated time-points (top panels). The maximum fluorescence intensity for all samples was recorded at day 0 (depicted in filled black). […] (B) Cells of the indicated genotype were incubated with everolimus 500 nM for 48 h, after which cell cycle was analyzed by flow cytometry. No increase of the subG1 apoptotic fraction of cells was observed upon treatment. Representative data from 3 independent experiments are shown.
For time-course experiments, on the initial day hTERT-HME1 cells were labelled with 3 μM CFSE (5-(and -6)-carboxyfluorescein diacetate, succinimidyl ester, Invitrogen C1157, Milan, Italy) in PBS in the dark for 30 minutes. After washing and recording baseline fluorescence, cells were plated in media containing 1% FBS and 2 ng/mL EGF, and treatment with everolimus was initiated, replenishing the drug on a daily basis. For cell cycle analysis, trypsinized cells were washed with PBS and cell nuclei DNA were stained with propidium iodide (PI) for at least 120 minutes using a commercial kit (DNA con 3, Consul T.S., Orbassano, Italy).
All fluorescence levels were detected by flow cytometry on a FACSCalibur (Becton Dickinson, Milan, Italy) and analyzed using CellQuest software. The number of events collected for each sample varied between 15,000 and 50,000. After doublets exclusion, an extended analysis of the DNA content and calculations of the percentage of cells in each phase of the cell cycle were performed on ModFit Lt software (Verity Software House, Topsham, Me.).
To shed light on the preferential effect induced by everolimus in PIK3CA KI clones, the present inventors also performed FACS analysis. […] The data shown in table 7 are the results of hTERT-HME1 cells of the indicated genotype incubated for 48 h with everolimus (500 nM), wherein the effect on cell cycle was analyzed by FACS. […] Accordingly, the proportions of cells in the S- and G2/M-phases decreased. Means of at least 4 independent experiments are shown. Significance by paired t test was taken at p<0.01.
To further explore the role of mutant KRAS on everolimus' response, the present inventors recapitulated the genetic milieu of the HCT116 colorectal cancer cells in hTERT-HME1 cells, by introducing via homologous recombination both KRAS G13D and PIK3CA H1047R alleles in their genome. This approach generated double-KI (DKI) cells, in which each mutation is expressed under the corresponding gene's own promoter. […] Means of at least 4 independent experiments are shown. Significance by paired t test was taken at p<0.01.

[5] = test system: HCT 116 colorectal cancer cells and derivative clones (HKh-2, HKe-3, HK2-6, PIK3CA WT/mutant); experiment: Viability (ATP assay) of HCT 116 cells and isogenic KRAS / PIK3CA derivative clones
Method: as §3, §4

[6] = test system: hTERT-HME1 DKI cells carrying PIK3CA (H1047R) and EGFR (delE746-A750)
[7] = test system: hTERT-HME1 cells carrying PIK3CA (E545K and H1047R) KI; experiment: Drug assay: cell viability by ATP content (96 h) and Hoechst/propidium iodide staining, KI versus parental cells; ΔKI pharmarray analysis; details: hTERT-HME1
[8] = hTERT-HME1 DKI KRAS G13D + PIK3CA H1047R, propidium iodide
[9] = hTERT-HME1 KI KRAS G13D, propidium iodide

## CO[C@H]1C[C@@H]2CC[C@@H](C)[C@@](O)(O2)C(=O)C(=O)N2CCCC[C@H]2C(=O)O[C@H]([C@H](C)C[C@@H]2CC[C@@H](OCCO)[C@H](OC)C2)CC(=O)[C@H](C)/C=C(\C)[C@@H](O)[C@@H](OC)C(=O)[C@H](C)C[C@H](C)/C=C/C=C/C=C/1C [everolimus, Everolimus]
[1]
  response of tumor cells with PIK3CA pathway alterations but no mutation in KRAS/BRAF: sensitive
[1]; such as HT-29, HCT 116 and DLD-1
  response of tumor cells carrying mutations in both PIK3CA and KRAS/BRAF: resistant
ME-180 cells
  response after introduction of mutated KRAS versus control vector: decreased response to the antiproliferative effects
[2]
  response after (re-)introduction of mutated KRAS versus control vector: decreased response to the antiproliferative effects
[3]; DKO-3 and DKO-4, FIG. 7C
  response of DLD-1 clones knock-out for the mutated KRAS D13 allele versus parental / DKO-1: more sensitive to everolimus
[3]; FIG. 14B
  response of DLD-1 cells knock-out for the mutated PIK3CA K545 allele: as sensitive to everolimus as either the corresponding parental cells or a clone retaining only the PIK3CA mutated allele
[4]
  cell cycle response of DKI cells (KRAS G13D and PIK3CA H1047R): cell cycle response comparable to that observed in the parental WT population
[4]; [8]
  cells in G1 phase, Mean: 77.5
  cells in G2/M phase, Mean: 10.5
  cells in S phase, Mean: 12.0
[4]; [9]
  cells in G1 phase, Mean: 75.7
  cells in G2/M phase, Mean: 13.1
  cells in S phase, Mean: 11.2
[4]; hTERT-HME1 KI PIK3CA E545K
  cells in G1 phase, Mean: 78.5
  cells in G2 + S, Mean: 21.5
  cells in G2/M phase, Mean: 12.7
  cells in S phase, Mean: 8.8
  cells in Sub-G1, Mean: 0.9
[4]; hTERT-HME1 KI PIK3CA H1047R
  cells in G1 phase, Mean: 88.7
  cells in G2 + S, Mean: 11.3
  cells in G2/M phase, Mean: 4.9
  cells in S phase, Mean: 6.4
  cells in Sub-G1, Mean: 0.6
[4]; hTERT-HME1 WT
  cells in G1 phase, Mean: 75.7
  cells in G2 + S, Mean: 24.3
  cells in G2/M phase, Mean: 14.2
  cells in S phase, Mean: 10.1
  cells in Sub-G1, Mean: 0.9
[4]; vehicle versus drug-treated, FIG. 18B
  apoptosis: almost undetectable
[5]; FIG. 7B
  response of HCT 116 parental and isogenic cells carrying mutated KRAS: equally resistant
[5]; HKh-2 and HKe-3, FIG. 7B
  response of HCT 116 derivative cells retaining only the KRAS WT allele: sensitive to everolimus
[5]; all clones retain mutated KRAS, FIG. 14A
  response of HCT 116 cells in which PIK3CA H1047R had been deleted: non-responsive to everolimus
[6]; Log(M) −5.70
  ΔKI PIK3CA + EGFR: 0
[6]; Log(M) −6.70
  ΔKI PIK3CA + EGFR: 1.38
[6]; Log(M) −7.70
  ΔKI PIK3CA + EGFR: 0
[6]; Log(M) −8.70
  ΔKI PIK3CA + EGFR: 0.68
[6]; Log(M) −9.70
  ΔKI PIK3CA + EGFR: 0
[7]; FIG. 5G
  pharmarray: differential response of PIK3CA mutated cells versus WT: affecting preferentially
[7]; wide range of concentrations, FIG. 6A
  antiproliferative effect on PIK3CA KI clones versus WT: significant antiproliferative effect only in mutated cells
